Laboratory results taken from ChEMBL document CHEMBL1144189, “Novel and potent oxazolidinone antibacterials featuring 3-indolylglyoxamide substituents” (Bioorg Med Chem Lett, 2008).
In brackets after ≈: the same amount, converted by molar mass.

Columns and labels:
Enterococcus faecalis [1] = test: Antibacterial activity against vancomycin-susceptible Enterococcus faecalis DRCC 034; format: functional
Enterococcus faecium = test: Antibacterial activity against vancomycin-resistant Enterococcus faecium DRCC 154; format: functional
Staphylococcus aureus [2] = test: Antibacterial activity against Staphylococcus aureus DRCC 035 infected mouse systemic infection model administered orally for 1 day at 1 and 5 hrs post-infection and measured daily for 5 days; format: functional; conditions: po
Staphylococcus aureus [3] = test: Antibacterial activity against methicillin-resistant Staphylococcus aureus DRCC 019; format: functional
Moraxella catarrhalis = test: Antibacterial activity against beta-lactamase deficient Moraxella catarrhalis DRCC 300; format: functional
Enterococcus faecalis [4] = test: Antibacterial activity against vancomycin-resistant Enterococcus faecalis DRCC 153; format: functional
Haemophilus influenzae = test: Antibacterial activity against beta-lactamase deficient Haemophilus influenzae DRCC 433; format: functional
Staphylococcus aureus [5] = test: Antibacterial activity against methicillin-susceptible Staphylococcus aureus DRCC 035; format: functional
Staphylococcus aureus [6] = test: Antibacterial activity against linezolid-resistant Staphylococcus aureus DRCC 564; format: functional
Enterococcus faecalis [7] = test: Antibacterial activity against linezolid-resistant Enterococcus faecalis DRCC 632; format: functional
[8] = AUC (0 to t) in Swiss albino mouse at 10 mg/kg, po; format: ADME, organism-based; design: dose 10 mg/kg, route oral; conditions: plasma
[9] = Cmax in Swiss albino mouse at 10 mg/kg, po; format: ADME, organism-based; design: dose 10 mg/kg, route oral; conditions: in vivo
[10] = Drug elimination in Swiss albino mouse at 10 mg/kg, po; format: ADME, organism-based; design: dose 10 mg/kg, route oral; conditions: in vivo
[11] = Tmax in Swiss albino mouse at 10 mg/kg, po; format: ADME, organism-based; design: dose 10 mg/kg, route oral; conditions: in vivo
[12] = Half life in Swiss albino mouse at 10 mg/kg, po; format: ADME, organism-based; design: dose 10 mg/kg, route oral; conditions: in vivo

## COC(=S)NC[C@H]1CN(c2ccc(N3CCN(C(=O)C(=O)c4c[nH]c5ccc(Br)cc45)CC3)c(F)c2)C(=O)O1
Enterococcus faecalis [1]
  MIC: 1 µg/mL (≈ 1.62 µM)
Enterococcus faecium
  MIC: 1 µg/mL (≈ 1.62 µM)
Staphylococcus aureus [2]
  ED50: > 30 mg/kg
Staphylococcus aureus [3]
  MIC: 1 µg/mL (≈ 1.62 µM)
Moraxella catarrhalis
  MIC: 1 µg/mL (≈ 1.62 µM)
Enterococcus faecalis [4]
  MIC: 0.5 µg/mL (≈ 0.808 µM)
Haemophilus influenzae
  MIC: > 32 µg/mL
Staphylococcus aureus [5]
  MIC: 1 µg/mL (≈ 1.62 µM)
Staphylococcus aureus [6]
  MIC: 2 µg/mL (≈ 3.23 µM)
Enterococcus faecalis [7]
  MIC: 2 µg/mL (≈ 3.23 µM)

## O=C(C(=O)N1CCN(c2ccc(N3C[C@H](Cn4ccnn4)OC3=O)cc2F)CC1)c1c[nH]c2ccc(Br)cc12
Enterococcus faecalis [1]
  MIC: 1 µg/mL (≈ 1.68 µM)
Enterococcus faecium
  MIC: 0.5 µg/mL (≈ 0.838 µM)
Staphylococcus aureus [2]
  ED50: 28.9 mg/kg
Staphylococcus aureus [3]
  MIC: 0.5 µg/mL (≈ 0.838 µM)
Moraxella catarrhalis
  MIC: 4 µg/mL (≈ 6.71 µM)
Enterococcus faecalis [4]
  MIC: 0.5 µg/mL (≈ 0.838 µM)
Haemophilus influenzae
  MIC: > 32 µg/mL
Staphylococcus aureus [5]
  MIC: 2 µg/mL (≈ 3.35 µM)
Staphylococcus aureus [6]
  MIC: 8 µg/mL (≈ 13.4 µM)
Enterococcus faecalis [7]
  MIC: 16 µg/mL (≈ 26.8 µM)

## CC(=O)NC[C@H]1CN(c2ccc(N3CCN(C(=O)C(=O)c4c[nH]c5ccc(C#N)cc45)CC3)c(F)c2)C(=O)O1
[8]
  AUC(0-t): 1900 ng·h/mL
Enterococcus faecalis [1]
  MIC: 1 µg/mL (≈ 1.88 µM)
Enterococcus faecium
  MIC: 1 µg/mL (≈ 1.88 µM)
Staphylococcus aureus [2]
  ED50: > 30 mg/kg
[9]
  Cmax: 430 ng/mL
Staphylococcus aureus [3]
  MIC: 1 µg/mL (≈ 1.88 µM)
[10]
  k el: 0.000161 s⁻¹
[11]
  Tmax: 3 h
Enterococcus faecalis [4]
  MIC: 0.5 µg/mL (≈ 0.939 µM)
Haemophilus influenzae
  MIC: > 32 µg/mL
Staphylococcus aureus [5]
  MIC: 1 µg/mL (≈ 1.88 µM)
[12]
  half-life: 1.19 h

## CC(=S)NC[C@H]1CN(c2ccc(N3CCN(C(=O)C(=O)c4c[nH]c5ccc(Br)cc45)CC3)c(F)c2)C(=O)O1
Enterococcus faecalis [1]
  MIC: 0.5 µg/mL (≈ 0.83 µM)
Enterococcus faecium
  MIC: 0.25 µg/mL (≈ 0.415 µM)
Staphylococcus aureus [2]
  ED50: > 30 mg/kg
Staphylococcus aureus [3]
  MIC: 0.25 µg/mL (≈ 0.415 µM)
Moraxella catarrhalis
  MIC: 2 µg/mL (≈ 3.32 µM)
Enterococcus faecalis [4]
  MIC: 0.12 µg/mL (≈ 0.199 µM)
Haemophilus influenzae
  MIC: > 32 µg/mL
Staphylococcus aureus [5]
  MIC: 0.5 µg/mL (≈ 0.83 µM)
Staphylococcus aureus [6]
  MIC: 2 µg/mL (≈ 3.32 µM)
Enterococcus faecalis [7]
  MIC: 2 µg/mL (≈ 3.32 µM)

## CC(=O)NC[C@H]1CN(c2ccc(N3CCN(C(=O)C(=O)c4c(C)[nH]c5ccccc45)CC3)c(F)c2)C(=O)O1
Enterococcus faecalis [1]
  MIC: 1 µg/mL (≈ 1.92 µM)
Enterococcus faecium
  MIC: 2 µg/mL (≈ 3.83 µM)
Staphylococcus aureus [3]
  MIC: 1 µg/mL (≈ 1.92 µM)
Enterococcus faecalis [4]
  MIC: 1 µg/mL (≈ 1.92 µM)
Haemophilus influenzae
  MIC: > 32 µg/mL
Staphylococcus aureus [5]
  MIC: 2 µg/mL (≈ 3.83 µM)

## CC(=O)NC[C@H]1CN(c2ccc(N3CCOCC3)c(F)c2)C(=O)O1 [LINEZOLID]
[8]
  AUC(0-t): 11000 ng·h/mL
Enterococcus faecium
  MIC: 2 µg/mL (≈ 5.93 µM)
Staphylococcus aureus [2]
  ED50: 5.3 mg/kg
[9]
  Cmax: 6310 ng/mL
Staphylococcus aureus [3]
  MIC: 1 µg/mL (≈ 2.96 µM)
[10]
  k el: 0.000142 s⁻¹
[11]
  Tmax: 0.25 h
Moraxella catarrhalis
  MIC: 4 µg/mL (≈ 11.9 µM)
Haemophilus influenzae
  MIC: 8 µg/mL (≈ 23.7 µM)
[12]
  half-life: 1.37 h
Staphylococcus aureus [6]
  MIC: 32 µg/mL (≈ 94.9 µM)
Enterococcus faecalis [7]
  MIC: 32 µg/mL (≈ 94.9 µM)

## CC(=O)NC[C@H]1CN(c2ccc(N3CCN(C(=O)C(=O)c4c[nH]c5ccc([N+](=O)[O-])cc45)CC3)c(F)c2)C(=O)O1
Enterococcus faecalis [1]
  MIC: 1 µg/mL (≈ 1.81 µM)
Enterococcus faecium
  MIC: 2 µg/mL (≈ 3.62 µM)
Staphylococcus aureus [3]
  MIC: 1 µg/mL (≈ 1.81 µM)
Enterococcus faecalis [4]
  MIC: 1 µg/mL (≈ 1.81 µM)
Haemophilus influenzae
  MIC: > 32 µg/mL
Staphylococcus aureus [5]
  MIC: 2 µg/mL (≈ 3.62 µM)

## CC(=O)NC[C@H]1CN(c2ccc(N3CCN(C(=O)C(=O)c4c[nH]c5ccc(Br)cc45)CC3)c(F)c2)C(=O)O1
[8]
  AUC(0-t): 2250 ng·h/mL
Enterococcus faecalis [1]
  MIC: 1 µg/mL (≈ 1.71 µM)
Enterococcus faecium
  MIC: 1 µg/mL (≈ 1.71 µM)
Staphylococcus aureus [2]
  ED50: 27 mg/kg
[9]
  Cmax: 680 ng/mL
Staphylococcus aureus [3]
  MIC: 0.5 µg/mL (≈ 0.853 µM)
[10]
  k el: 8.89e-05 s⁻¹
[11]
  Tmax: 2 h
Moraxella catarrhalis
  MIC: 2 µg/mL (≈ 3.41 µM)
Enterococcus faecalis [4]
  MIC: 0.5 µg/mL (≈ 0.853 µM)
Haemophilus influenzae
  MIC: > 32 µg/mL
Staphylococcus aureus [5]
  MIC: 1 µg/mL (≈ 1.71 µM)
[12]
  half-life: 2.17 h
Staphylococcus aureus [6]
  MIC: 8 µg/mL (≈ 13.6 µM)
Enterococcus faecalis [7]
  MIC: 8 µg/mL (≈ 13.6 µM)
